Experimental data reported in patent publication US20090215853A1, “Flavopereirine and alstonine combinations in the treatment and prevention of prostate cancer” (Natural Source International, priority 2004, published 2009).

How the values were obtained:
LNCaP cells = assay: Induction of apoptosis in LNCaP cells (PARP cleavage, Caspase-3 activity); assay type: cell-based, human; conditions: 24 hours (FIG. 2)
normal DNA = conditions: Oncotest; cited from earlier work

In the case of `COC(=O)C1=CO[C@@H](C)[C@@H]2Cn3ccc4c5ccccc5nc-4c3C[C@H]12` [alstonine], the “apoptosis as determined by cleavage of PARP and induction of Caspase-3” value (LNCaP cells) is listed as “relatively minor effect” and the “effect on normal DNA” value (normal DNA) is listed as “no effect on normal DNA”.
For `CCc1ccc2c3[nH]c4ccccc4c3cc[n+]2c1` [flavopereirine], the “apoptosis as determined by cleavage of PARP and induction of Caspase-3” value (LNCaP cells) is given as “induction of apoptosis” and the “effect on normal DNA” value (normal DNA) is given as “no effect on normal DNA”.
